In patent US8852917B2, “Thuricin CD, an antimicrobial for specifically targeting Clostridium difficile” (University College Cork, priority 2007, dated 2014):
In brackets after ≈: the same amount, converted by molar mass. Entries after “also recorded” stand apart in the source; their conditions may differ. Read-outs that look alike come from different tables or passages of the source.

What was measured:
[1] = tested on: C. difficile ribotypes 001, 106 and 027; assay: Determination of minimum inhibitory concentrations; format: cell-based
Bifidobacteria = assay: Model faecal fermentation; format: cell-based, Bifidobacterium sp.; conditions: up to 16 hr incubation
Protocol: (§1) Faecal growth medium was prepared as described by Fooks and Gibson (2003) with minor modifications as follows. The ingredients were made up to 800 ml, the pH adjusted to 6.8. One hundred and sixty ml was added to each fermentation vessel and autoclaved at 121° C. for 15 min. Prior to inoculation the faecal medium was sparged with O2-free nitrogen for ˜1 h. A 20% faecal slurry was made from a fresh faecal sample in 50 mM phosphate buffer containing 0.05% cystein which has been previously boiled and cooled just prior to use and mixed using a stomacher for no longer than 1 min. Two fermentor vessels were inoculated with 35 ml of the slurry preparation and 2 ml of the overnight culture of C. difficile. To the test vessel 1 ml of 100 mg/ml thuricin was added at 0, 8 and 16 h incubation and both vessels sampled at 0, 4, 8, 12, 16, 20 and 24 h for both microbiological analyses of C. difficile and Bifidobacteria sp. Samples were also taken for analysis of thuricin activity using WDA and MALDI-TOF MS.
(§2) C. difficile was enumerated on CCEY agar (LabM) and Bifidobacterium sp. on modified MRS agar containing 0.05% cystein and 50 mg mupirocin/1 after 48 h and 72 h at 37° C. incubation respectively.

[2] = Activity over a range of pH; format: physicochemical
Protocol: (§3) Activity over a range of pH was determined in CFS by adjusting pH from 2 to 9 using either 0.5M HCl or 1M NaOH. The effect of acid or base on the target organism was determined using uninoculated broth medium adjusted through the pH range. Activity was determined using WDA assay using C. difficile ATCC 43593 as the target strain. Heat sensitivity was determined by heating the CFS for 15 min at a range of temperatures from 37° C. to 100° C.; the control was incubated at 37° C. Activity was determined using WDA with C. difficile ATCC 43593 as the target organism.

Gram negative organisms = format: cell-based; conditions: WDA
Protocol: B. thuringiensis DPC 6431 was grown aerobically from stock for ˜6 h in BHI broth and sub-cultured into fresh BHI at 0.1% for 18 h in BHI. Following growth, the culture was centrifuged twice at 8200 g for 10 min. Activity was determined using the well diffusion assay (WDA) as described by Ryan et al., (1996). Activity against a range of target organisms was determined by WDA. Cultures were grown over-night in various broth media and temperatures as outlined in Table 1. Twenty ml of the appropriate agar medium was inoculated with 100 μl of target organism and, once solidified, 50 μl of the cell free supernatant (CFS) of B. thuringiensis DPC 6431 was added to a well made in the agar. Plates were incubated under conditions appropriate for the various target organisms as outlined in Table 1. Zones of inhibition (mm) were measured and relative sensitivity determined by measuring the diameter of the zone. Zones of size ≦9 mm were designated +; of 10-15 mm were designated ++; of 16-21 mm were designated +++; of ≧22 mm were designated ++++;

[3] = tested on: C. difficile DPC 6537 (PCR ribotype 001); assay: Model faecal fermentation; format: cell-based; conditions: 500 μg thuricin added at 0, 8, and 16 hr; spiked with 10^6 cfu C. difficile ribotype 001/ml; after 16 hr incubation
Protocol: C. difficile DPC 6537 (PCR Ribot e 001) was taken from −80° C. stock and streaked on Fastidious Anaerobic Agar and incubated anaerobically at 37° C. On the night before the experiment ˜1 colony was inoculated into 10 ml of RCM which has been previously boiled and cooled and incubated anaerobically at 37° C.
as §1, with “To the test vessel 1 ml of 100 mg/ml thuricin was added at 0, 8 and 16 h incubation and both vessels sampled at 0, 4, 8, 12, 16, 20 and 24 h for both microbiological analyses of C. difficile and Bifidobacteria sp.” left out
as §2

C. difficile R027 NAP1 = assay: Kill curves; format: cell-based
Protocol: The effect of thuricin against C. difficile R027 NAP1, L. monocytogenes NCTC 5348, Lb. casei 338 and B. lactis Bb12 was determined in Reinforced Clostridium Medium (RCM Merck), Brain Heart Infusion broth (Merck), MRS (de Mann-Rogosa-Sharpe) medium (Difco) and MRS containing 0.05% cystein respectively. Three independent cultures were prepared for each strain and grown overnight at 37° C. Three replicate one ml volumes of sterile double strength broth medium was prepared for each strain and inoculated with the test organisms to give initial cell numbers of 10^5-10^6/ml. Thuricin was added to give the required concentration and the volume made up to 2 ml with sterile distilled water. The bacteriocin was omitted from the control and volume substituted with sterile water. Samples were removed at intervals, serially diluted and plated on RCA, BHI agar, MRS agar or MRS agar containing 0.05% cystein depending on the strain. Plates were counted after 24 h (L. monocytogenes), or 48 h (C. difficile, Lb. casei 338 and B. lactis Bb12) incubation at 37° C.

bifidobacteria strains = format: cell-based
[4] = Stability in ex vivo porcine gastric and ileal juice; format: in vitro ADME; conditions: 37° C., 1 mg/ml, WDA
Protocol: Effect of ex vivo porcine gastric and ileal juice on the stability of the thuricin CD C. difficile 64539 was grown overnight and inoculated at 1.25% into Reinforced Clostridium Agar (RCA). Purified Thuricin CD was prepared as described above. Seven ml of porcine ileal and gastric juice was centrifuged for 15 min at 12,000 rpm to remove debris. Seventy μl (1 mg/ml) of thuricin was added to 7000 μl of porcine gastric and ileum juice and incubated at 37° C. At intervals samples were taken and activity was measured using the WDA and checked for the presence of the Trn-α and Trn-β peptides using MALDI-TOF MS.

B. lactis Bb12 = format: cell-based
[5] = Sensitivity to enzymatic degradation; format: in vitro ADME; conditions: FIG. 1; Proteinase K (6.5 mg/ml) applied to the edge of the well
Protocol: The cell free supernatant was tested for sensitivity to the following enzymes at a concentration of 25 mg/ml: pepsin, trypsin, peptidase, α-chymotrypsin type V111, α-chymotrypsin type 11 and proteinase K. All enzymes were purchased from Sigma. Cell free supernatants were incubated with the enzymes for 1 h at 37° C. Activity post enzyme treatment was determined using the well diffusion method using C. difficile ATCC 43593 as the target organism. Sensitivity of the antimicrobial to Proteinase K was also determined by applying 5 μl of Proteinase K (6.5 mg/ml) to the edge of the well containing the sample.

Lb. casei 338 = format: cell-based
[6] = Stability in simulated gastric, ileal and colon juice; format: in vitro ADME; conditions: 37° C., 1 mg/ml, WDA
Protocol: Effect of simulated gastric, ileal and colon juice on stability of thuricin CD C. difficile 64539 was grown overnight and inoculated at 1.25% into Reinforced Clostridium Agar (RCA). Simulated gastric, ileal and colon juice were prepared as outlined by Breumer et al (1992). Purified thuricin CD was made up to 100 mg/ml in 70% IPA. Seventy μl (1 mg/ml final concentration) of thuricin was added to 7000 μl of porcine gastric and ileum juice and incubated at 37° C. At intervals samples were taken and activity was measured with the WDA using C. difficile seeded plates. The samples were also assayed for the presence of the Trn-α and Trn-β peptides using MALDI-TOF MS

C. difficile = assay: Lysis of C. difficile by thuricin CD; format: cell-based
Protocol: The lytic effect of thuricin CD on C. difficile was carried out as described by Rea et at (2007).

[7] = tested on: L. monocytogenes NCTC 5348; format: cell-based
Heat sensitivity = format: physicochemical
Protocol: as §3

[8] = tested on: Lactobacillus and Bifidobacterium populations; conditions: simple faecal fermentations; concentrations required to kill C. difficile; cited from earlier work
[9] = C. difficile ribotype 001, 16 h at 37° C. anaerobically, read-out: MIC
[10] = C. difficile ribotype 106, 16 h at 37° C. anaerobically, read-out: MIC

Q: With Cc1ncc([N+](=O)[O-])n1CCO [Metronidazole, metronidazole] as the molecule, how does the MIC ([1]; Clostridioides difficile, 16 h, C. difficile ribotype 001, 16 h at 37° C. anaerobically, read-out: MIC) read?
A: Its MIC is 3.12 µM (≈ 0.535 µg/mL).

Q: What about the MIC ([1]; Clostridioides difficile, 16 h, C. difficile ribotype 027, 16 h at 37° C. anaerobically, read-out: MIC) of the same molecule?
A: The MIC was 3.12 µM (≈ 0.535 µg/mL).

Q: What about the MIC ([1]; Clostridioides difficile, 16 h, C. difficile ribotype 106, 16 h at 37° C. anaerobically, read-out: MIC) of the same molecule?
A: Its MIC is 1.56 µM (≈ 0.267 µg/mL).

Q: Which results are given for Thuricin CD?
A: Effect on numbers of Bifidobacteria relative to control (Bifidobacteria): did not affect; pH range in which active [2]: 2-10; Activity against Gram negative organisms tested (Gram negative organisms): no activity; Reduction of C. difficile compared with the control [3]: over 1000 fold; Time within which approximately 5×10^6 CFU of C. difficile per ml are killed (C. difficile R027 NAP1; 5 μM): ≤ 60 minutes; Time to reduce viable cells from ˜10^6/ml to zero (C. difficile R027 NAP1; 200 AU thuricin/ml, C. difficile PCR ribotype 027): ≤ 2 h; Time within which approximately 5×10^6 CFU of C. difficile per ml are killed (C. difficile R027 NAP1; 200 AU/ml): ≤ 180 minutes; Time within which ˜5×10^6 cfu of C. difficile per ml were killed (C. difficile R027 NAP1; 200 AU/ml): ≤ 180 min; MIC [1, 9]: 0.097 µM; MIC ([1]; C. difficile ribotype 027, 16 h at 37° C. anaerobically, read-out: MIC): 0.012 µM; MIC [1, 10]: 0.125 µM; Sensitivity of bifidobacteria strains tested (bifidobacteria strains): No bifidobacteria strains tested were sensitive; Activity after incubation in ex vivo porcine gastric juice ([4]; 2 hr): no reduction in activity; Activity after incubation in ex vivo porcine ileal juice ([4]; 5 hr): no reduction in activity; Effect on viability of B. lactis BB12 (B. lactis Bb12): no effect; also recorded: did not affect; Activity on treatment with Proteinase K [5]: lost; Effect on viability of Lb. casei 338 (Lb. casei 338): no effect; also recorded: did not affect; Activity after incubation in simulated gastric juice ([6]; 2 hours): no reduction of activity; Activity after incubation in simulated ileal juice ([6]; 4 hours): no reduction of activity; Activity after incubation in simulated colon juice ([6]; 9 hours): no reduction of activity; Effect on OD600 nm of logarithmically growing C. difficile (C. difficile): gradual reduction of OD600 nm; Acetate kinase in the growth medium (lysis) (C. difficile; logarithmically growing C. difficile): release of the intracellular enzyme acetate kinase; Reduction of cell numbers of L. monocytogenes [7]: 1.5 log cycles; Activity after heating at 90° C. (Heat sensitivity): reduction of activity; Activity after heating at 100° C. (Heat sensitivity): loss of activity; Temperature up to which heat stable / activity retained (Heat sensitivity): up to 95 °C; Temperature up to which heat-stable (Heat sensitivity): about 85 ° Centigrade

Q: Which “Effect on Lactobacillus and Bifidobacterium populations” value [8] does the source give for lacticin 3147 here?
A: The value was 3 log cycles.

Q: Which MIC [1, 9] does the source give for CN[C@H](CC(C)C)C(=O)N[C@H]1C(=O)N[C@@H](CC(N)=O)C(=O)N[C@H]2C(=O)N[C@H]3C(=O)N[C@H](C(=O)N[C@H](C(=O)O)c4cc(O)cc(O)c4-c4cc3ccc4O)[C@H](O)c3ccc(c(Cl)c3)Oc3cc2cc(c3O[C@@H]2O[C@H](CO)[C@@H](O)[C@H](O)[C@H]2O[C@H]2C[C@](C)(N)[C@H](O)[C@H](C)O2)Oc2ccc(cc2Cl)[C@H]1O [Vancomycin, vancomycin] here?
A: The MIC was 0.39 µM (≈ 0.565 µg/mL).

Q: And the MIC [1, 10]?
A: The MIC was 0.39 µM (≈ 0.565 µg/mL).

Q: And the MIC ([1]; Clostridioides difficile, 16 h)?
A: The MIC was 0.39 µM (≈ 0.565 µg/mL).
